Assay results as given in patent publication US10875876B2, “Cyclized sulfamoylarylamide derivatives and the use thereof as medicaments for the treatment of hepatitis B” (priority 2015, dated 2020).
Where two headings read alike, the source gives them in different places.

How the values were obtained:
HBV = experiment: anti HBV activity, HepG2.117 cell line, intracellular HBV DNA by realtime PCR; type: cell-based; conditions: HepG2.117 cell line (Tet-off), 3 days of treatment, intracellular HBV DNA quantified by realtime PCR, read-out: HBV-AVE-HepG2.117 EC50
Procedure, shortened: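 Readout was intracellular HBV DNA by real-time PCR (HBV-specific primers and probe) after 3 days of compound exposure. Serial dilutions were tested in duplicate on HepG2.117 cells, a stable inducible HBV producer in which replication is switched on when doxycycline is absent.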

[1] = Cytotoxicity in HepG2 cells, Resazurin assay; conditions: human, HepG2 cells, TOX-HepG2-4 d CC50 (μM), HepG2 cells incubated for 4 days, viability by Resazurin assay
[2] = Hepatitis B virus, HepG2.117, 72 h

Compound	EC50 (HBV; [2]) [nM]	CC50 at 4 days [1] [µM]	EC50 (HBV) [nM]
COC(=O)C1COc2c(cn(C)c2C(=O)Nc2ccc(F)c(F)c2)S(=O)(=O)N1 (centres unmarked) [compound 243]	> 500	> 25	
Cc1cc(CC2(C)COc3c(cn(C)c3C(=O)Nc3ccnc(C(F)F)c3)S(=O)(=O)N2)no1 (single isomer, unassigned) [Compound 209a, N-[2-(difluoromethyl)-4-pyridyl]-3,7-dimethyl-3-[(5-methylisoxazol-3-yl)methyl]-1,1-dioxo-2,4-dihydropyrrolo[3,4-b][1,4,5]oxathiazepine-6-carboxamide]		> 25	60
Cn1cc2c(c1C(=O)Nc1ccc(F)c(F)c1)OCC(CO)NS2(=O)=O (centres unmarked) [Compound 83, N-(3,4-difluorophenyl)-3-(hydroxymethyl)-7-methyl-1,1-dioxo-3,4-dihydro-2H-pyrrolo[3,4-b][1,4,5]oxathiazepine-6-carboxamide]	58	> 25	
C[C@H]1C=Cc2c(cn(C)c2C(=O)Nc2ccc(F)c(C(F)(F)F)c2)S(=O)(=O)N1 (single isomer, unassigned) [Compound 30, (*S)—N-[4-fluoro-3-(trifluoromethyl)phenyl]-3,7-dimethyl-1,1-dioxo-2,3-dihydropyrrolo[3,4-f]thiazepine-6-carboxamide]	13	> 25	
CC1COc2c(ccc(F)c2C(=O)Nc2ccc(F)c(F)c2)S(=O)(=O)N1 (centres unmarked) [Compound 12, N-(3,4-difluorophenyl)-7-fluoro-3-methyl-1,1-dioxo-3,4-dihydro-2H-5,1λ^6,2-benzoxathiazepine-6-carboxamide]	350	> 25	
Cc1cc(CC2(C)COc3c(cn(C)c3C(=O)Nc3ccc(F)c(C#N)c3)S(=O)(=O)N2)no1 (single isomer, unassigned) [Compound 220a, N-(3-cyano-4-fluoro-phenyl)-3,7-dimethyl-3-[(5-methylisoxazol-3-yl)methyl]-1,1-dioxo-2,4-dihydropyrrolo[3,4-b][1,4,5]oxathiazepine-6-carboxamide]		> 25	7
Cn1cc2c(c1C(=O)Nc1ccc(F)c(C(F)F)c1)OC[C@H](C(O)C1CC1)NS2(=O)=O (stereo partly drawn) [Compound 115a, (3R)-3-[cyclopropyl(hydroxy)methyl]-N-[3-(difluoromethyl)-4-fluoro-phenyl]-7-methyl-1,1-dioxo-3,4-dihydro-2H-pyrrolo[3,4-b][1,4,5]oxathiazepine-6-carboxamide]	8	> 25	
C[C@H]1NS(=O)(=O)c2cn(C)c(C(=O)Nc3ccc(F)c(F)c3)c2O[C@@H]1C [compound 231]	> 500	> 25	
Cn1cc2c(c1C(=O)Nc1ccc(F)c(C(F)F)c1)CCC(C(C)(C)O)NS2(=O)=O (single isomer, unassigned) [Compound 150a, N-[3-(difluoromethyl)-4-fluoro-phenyl]-3-(1-hydroxy-1-methyl-ethyl)-7-methyl-1,1-dioxo-2,3,4,5-tetrahydropyrrolo[3,4-f]thiazepine-6-carboxamide]		> 25	> 125
Cn1cc2c(c1C(=O)Nc1ccc(F)c(C#N)c1)C=CC1(COC1)NS2(=O)=O [Compound 140, N-(3-cyano-4-fluoro-phenyl)-7-methyl-1,1-dioxo-spiro[2H-pyrrolo-[3,4-f]thiazepine-3,3′-oxetane]-6-carboxamide]	62	> 25	
C[C@H]1C=Cc2c(cn(C)c2C(=O)Nc2ccc(F)c(C#N)c2)S(=O)(=O)N1 (single isomer, unassigned) [Compound 32, (*S)—N-(3-cyano-4-fluoro-phenyl)-3,7-dimethyl-1,1-dioxo-2,3-dihydropyrrolo[3,4-f]thiazepine-6-carboxamide]	3	> 25	
CC(C)N1CCc2c(cn(C)c2C(=O)Nc2ccc(F)c(F)c2)S1(=O)=O [Compound 16, N-(3,4-difluorophenyl)-2-isopropyl-6-methyl-1,1-dioxo-3,4-dihydropyrrolo[3,4-e]thiazine-5-carboxamide]	230	> 25	
Cn1cc2c(c1C(=O)Nc1ccnc(C(F)F)c1)C=CC(C(F)F)NS2(=O)=O (centres unmarked) [compound 247]	> 130	> 25	
Cn1cc2c(c1C(=O)Nc1ccc(F)c(F)c1)OCC(C(O)c1ccncc1)NS2(=O)=O (centres unmarked) [Compound 183, N-(3,4-difluorophenyl)-3-[hydroxy(4-pyridyl)methyl]-7-methyl-1,1-dioxo-3,4-dihydro-2H-pyrrolo[3,4-b][1,4,5]oxathiazepine-6-carboxamide]	2	> 25	
CC(C)C1CCc2c(cn(C)c2C(=O)Nc2ccc(F)c(C#N)c2)S(=O)(=O)N1 (centres unmarked) [Compound 85, N-(3-cyano-4-fluoro-phenyl)-3-isopropyl-7-methyl-1,1-dioxo-2,3,4,5-tetrahydropyrrolo[3,4-f]thiazepine-6-carboxamide]	7	> 25	
Cn1cc2c(c1C(=O)Nc1ccc(F)c(C(F)F)c1)OC[C@H](Cc1cccnc1)NS2(=O)=O [Compound 75, (3S)—N-[3-(difluoromethyl)-4-fluoro-phenyl]-7-methyl-1,1-dioxo-3-(3-pyridylmethyl)-3,4-dihydro-2H-pyrrolo[3,4-b][1,4,5]oxathiazepine-6-carboxamide]	7	> 25	
Cc1cc(C2(C)COc3c(cn(C)c3C(=O)Nc3ccc(F)c(C(F)F)c3)S(=O)(=O)N2)no1 (racemic) [Compound 181, N-[3-(difluoromethyl)-4-fluoro-phenyl]-3,7-dimethyl-3-(5-methylisoxazol-3-yl)-1,1-dioxo-2,4-dihydropyrrolo[3,4-b][1,4,5]oxathiazepine-6-carboxamide]	8	> 25	
Cn1cc2c(c1C(=O)Nc1ccnc(C(F)(F)F)c1)CCC(C(F)(F)F)NS2(=O)=O (single isomer, unassigned) [Compound 59a, 7-methyl-1,1-dioxo-3-(trifluoromethyl)-N-[2-(trifluoromethyl)-4-pyridyl]-2,3,4,5-tetrahydropyrrolo[3,4-f]thiazepine-6-carboxamide]		> 25	> 500
C[C@@H](O)[C@H]1CCc2c(cn(C)c2C(=O)Nc2ccc(F)c(F)c2)S(=O)(=O)N1 [Compound 70, (3R)—N-(3,4-difluorophenyl)-3-[(1R)-1-hydroxyethyl]-7-methyl-1,1-dioxo-2,3,4,5-tetrahydropyrrolo[3,4-f]thiazepine-6-carboxamide]	14	> 25	
CC(C)C(O)C1COc2c(cn(C)c2C(=O)Nc2ccc(F)c(F)c2)S(=O)(=O)N1 (single isomer, unassigned) [Compound 114a, N-(3,4-difluorophenyl)-3-(1-hydroxy-2-methyl-propyl)-7-methyl-1,1-dioxo-3,4-dihydro-2H-pyrrolo[3,4-b][1,4,5]oxathiazepine-6-carboxamide]		> 25	22
CC(C)[C@H]1Oc2c(cn(C)c2C(=O)Nc2ccc(F)c(C#N)c2)S(=O)(=O)N[C@@H]1CO [compound 239]	> 500	> 25	
CC(C)C1CCc2c(cn(C)c2C(=O)Nc2ccc(F)c(C(F)F)c2)S(=O)(=O)N1 (centres unmarked) [Compound 86, N-[3-(difluoromethyl)-4-fluoro-phenyl]-3-isopropyl-7-methyl-1,1-dioxo-2,3,4,5-tetrahydropyrrolo[3,4-f]thiazepine-6-carboxamide]	5	> 25	
CC(C)C(O)C1COc2c(cn(C)c2C(=O)Nc2ccc(F)c(C#N)c2)S(=O)(=O)N1 (centres unmarked) [Compound 119a, N-(3-cyano-4-fluoro-phenyl)-3-(1-hydroxy-2-methyl-propyl)-7-methyl-1,1-dioxo-3,4-dihydro-2H-pyrrolo[3,4-b][1,4,5]oxathiazepine-6-carboxamide]	11	> 25	
C[C@H]1CCc2c(cn(C)c2C(=O)Nc2cc(F)c(F)c(F)c2)S(=O)(=O)N1 (single isomer, unassigned) [Compound 39, (3*S)-3,7-dimethyl-1,1-dioxo-N-(3,4,5-trifluorophenyl)-2,3,4,5-tetrahydropyrrolo[3,4-f]thiazepine-6-carboxamide]	3	> 25	
CC1NS(=O)(=O)c2cn(C)c(C(=O)Nc3ccc(F)c(F)c3)c2OC1C (centres unmarked) [Compound 28, N-(3,4-difluorophenyl)-3,4,7-trimethyl-1,1-dioxo-3,4-dihydro-2H-pyrrolo[3,4-b][1,4,5]oxathiazepine-6-carboxamide]	890	> 25	
C[C@H]1CCc2c(cn(C)c2C(=O)Nc2ccnc(C(F)F)c2)S(=O)(=O)N1 [Compound 165, (3S)—N-[2-(difluoromethyl)-4-pyridyl]-3,7-dimethyl-1,1-dioxo-2,3,4,5-tetrahydropyrrolo[3,4-f]thiazepine-6-carboxamide]	68	> 25	
Cn1ccc(CC2(C)COc3c(cn(C)c3C(=O)Nc3ccc(F)c(F)c3)S(=O)(=O)N2)n1 (racemic) [Compound 167, N-(3,4-difluorophenyl)-3,7-dimethyl-3-[(1-methylpyrazol-3-yl)methyl]-1,1-dioxo-2,4-dihydropyrrolo[3,4-b][1,4,5]oxathiazepine-6-carboxamide]	41	> 25	
Cn1cc2c(c1C(=O)Nc1ccc(F)c(F)c1)OC[C@@H](c1ccccc1)NS2(=O)=O [Compound 25, (3R)—N-(3,4-difluorophenyl)-7-methyl-1,1-dioxo-3-phenyl-3,4-dihydro-2H-pyrrolo[3,4-b][1,4,5]oxathiazepine-6-carboxamide]	22	> 25	
